# Test results taken from patent EP4640213A1, “ORAL PHARMACEUTICAL PREPARATION COMPRISING SODIUM-GLUCOSE COTRANSPORTER-2 INHIBITOR AND ANGIOTENSIN II RECEPTOR BLOCKER” (THPharm Corp., priority 2022, dated 2024).
# Assays:
# [1] = Drug-drug compatibility test under accelerated stability conditions; type: physicochemical
# Experimental: Specifically, after storing a mixture of ARB and SGLT-2 inhibitor for 4 weeks under accelerated stability test conditions (40 ± 2°C/75 ± 5% relative humidity), changes in the contents of each ingredient and flexible substance and changes in properties (color, agglomeration, etc.) were analyzed. Olmesartan, Valsartan, and Telmisartan were used as ARBs, and Empagliflozin, Dapagliflozin (Dapagliflozin propanediol monohydrate), and Canagliflozin were used as SGLT-2 inhibitors. [Table 4] […] To observe the properties and viscosity of the main ingredients, 10 g of the mixtures of ARBs and SGLT-2 inhibitors stored for 1, 2, 3, and 4 weeks were taken and exposed to 100 ml of purified water at room temperature for 10 minutes, and then the properties and viscosity were identified.
# MDCK cells = test: Cell survival rate (MTT) in MDCK cells; type: cell-based; conditions: up to a concentration of 25 µM, 24 and 48 hours, FIGS. 2A, 2B
# Experimental: (§1) To screen angiotensin II receptor blockers for use in combinations of angiotensin II receptor blockers (ARBs) and sodium-glucose cotransporter-2 (SGLT-2) inhibitors for the treatment of heart failure, cell survival rates were evaluated.
# (§2) Specifically, A549 cells were obtained from the Korean Cell Line Bank (KCLB) and subcultured using a RPMI-1640 medium supplemented with 10% fetal bovine serum (FBS) and 1% Penicillin, and MDCK cells were obtained from ATCC and subcultured using a DMEM medium supplemented with 10% FBS. 200 µl each of the A549 cells and MDCK cells incubated in an incubator under 37°C and 5% CO2 conditions were dispensed at 2 × 10^4 cells/well in a 96-well plate, and then a control group was treated with 100 µl of the medium, and experimental groups were treated with 1.25, 25, 50, and 100 µM of Telmisartan or olmesartan, respectively. After 24 and 48 hours, all of the wells were treated with 50 µl each of a 2 mg/ml MTT reagent and incubated in an incubator for 3 hours, and then each well was added with […] of DMSO, wrapped in foil, stirred for 30 minutes at room temperature, and the absorbance was measured at 570 nm to obtain the cell survival rate.
# [2] = 4-week repeated oral administration toxicity; type: in vivo, Sprague-Dawley rats; conditions: oral daily for 4 weeks
# Experimental: During the test, general symptom observation, blood test, and body weight measurement were performed, and after the observation period ended, the rats were euthanized and autopsied.
# [3] = system: angiotensin converting enzyme (ACE); test: ACE ELISA assay (ACE protein expression) in LPS inflammation-induced H9c2 cells; type: cell-based, rat; conditions: FIG. 3
# [4] = system: angiotensin converting enzyme (ACE); test: ACE mRNA expression (RT-PCR) in LPS inflammation-induced H9c2 cells; type: cell-based, rat; conditions: for mRNA expression of ACE: alone administration, FIGS. 5 and 6
# Experimental: Specifically, H9c2 cells as a […] cardiac cell line were obtained and used from the Korea Cell Line Bank (KCLB 40071, Korea) and incubated and prepared in a DMEM medium supplemented with 10% FBS and 1% antibiotic-antimycotic (10 units/ml penicillin, 100 µg/ml streptomycin, 0.25 µg/ml amphotericin) under 37°C and 5% CO2 conditions.
# To confirm the effect on ACE activity, the prepared H9c2 cells were treated with 2.5 µg/ml of Lipopolysaccharide (LPS), which was 2.5 times more than the amount used in conventional inflammation-related experiments, to induce inflammation, thereby setting the optimized conditions for confirming ACE expression. LPS inflammation-induced H9c2 cells were treated with 10, 25, and 50 µM Telmisartan or olmesartan, respectively, and the H9c2 cells were harvested for ELISA assay. The harvested cells were treated with 1 ml of an RIPA buffer and stirred at 4°C for 30 minutes to extract proteins. Thereafter, the proteins were centrifuged at 4°C and 10,000 rpm for 20 minutes, and the supernatant was transferred to a sterilized tube and stored at - 80°C for use in the ELISA assay.
# Specifically, LPS inflammation-induced H9c2 cells in Experimental Example 1-2 were treated with 10 or 25 µM Telmisartan and 10 or 50 µM olmesartan, and then treated with 200 µl of chloroform together with 1 ml of TRIZol (Sigma, USA), gently mixed, and separated for 10 minutes, and then centrifuged at 4°C and 10,000 rpm for 10 minutes. After centrifugation, only the supernatant from the tube was taken and transferred to a new sterile tube, and the supernatant was treated with 500 µl of isopropanol to precipitate RNA. The precipitated RNA was centrifuged at 4°C, 10,000 rpm for 10 minutes, and then the supernatant except for the pellets in the tube was fully removed, and the RNA pellets were treated with 500 µl of 75% ethyl alcohol and thoroughly washed. The washed pellets were centrifuged at 4°C, 10,000 rpm for 5 minutes, and then the supernatant except the pellets was fully removed. The tube containing the pellets from which the supernatant had been cleanly removed was treated with diethyl pyrocarbonate (DEPC)-water and stored at - 80°C for use in an RT-PCR experiment.
# RT-PCR was performed by synthesizing cDNA from mRNA using an RT-PCR kit containing DNA polymerase, buffer, dNTP, and tracking dye, and then using ACE primers in Table 1 under the conditions in Table 2 for 35 cycles. The PCR products were electrophoresed on a […] agarose gel, identified using a UV transilluminator, and expressed as normalized to GAPDH for quantitative comparison.
# In order to confirm the effect of each combination or single substance on the mRNA expression of ACE, the experimental samples in Table 3 were treated to H9c2 cells induced with LPS inflammation in Experimental Example 1-2, respectively, and then the mRNA expression of ACE was evaluated in the same manner as in Experimental Example 1-3.
# [5] = Single oral administration pharmacokinetic test; conditions: beagle dogs
# Experimental: The control and test drugs were administered orally once by a single tablet, and were crossed over (4 × 4 cross over) four times at one-week intervals. Fasting was performed from 5 to 6 pm the day before administration. The control and test drugs were administered into the tongue root, and then administered with approximately 15 ml of water, and feed was provided approximately 4 hours after administration. Blood was collected at 0 (blank), 0.25, 0.5, 0.75, 1, 1.5, 2, 3, 4, 5, 6, 8, 12, and 24 hours (14 times) after administration of the control and test drugs, and left by a 7-day drug-free period.
# A549 cells = test: Cell survival rate (MTT) in A549 cells; type: cell-based; conditions: up to a concentration of 25 µM, 24 and 48 hours, FIGS. 1A, 1B
# Experimental: as §1, §2
# [6] = ARB ingredient (first value of cell), Acceleration 1 week, 40 ± 2°C/75 ± 5% relative humidity
# [7] = ARB ingredient (first value of cell), Acceleration 2 week
# [8] = ARB ingredient (first value of cell), Acceleration 3 week
# [9] = ARB ingredient (first value of cell), Acceleration 4 week
# [10] = ARB ingredient (first value of cell), Initial
# [11] = color, agglomeration, etc., Initial
# [12] = SGLT-2 inhibitor ingredient (second value of cell), Acceleration 1 week
# [13] = SGLT-2 inhibitor ingredient (second value of cell), Acceleration 2 week
# [14] = SGLT-2 inhibitor ingredient (second value of cell), Acceleration 3 week
# [15] = SGLT-2 inhibitor ingredient (second value of cell), Acceleration 4 week
# [16] = SGLT-2 inhibitor ingredient (second value of cell), Initial
# [17] = low-concentration groups of 2.5 µM to 10 µM
# [18] = 15 µM high-concentration groups
flexible substance ([1]; Acceleration 1 week),property ([1]; Acceleration 1 week),flexible substance ([1]; Acceleration 2 week),property ([1]; Acceleration 2 week),flexible substance ([1]; Acceleration 3 week),property ([1]; Acceleration 3 week),flexible substance ([1]; Acceleration 4 week),property ([1]; Acceleration 4 week),flexible substance ([1]; Initial),"property [1, 11]",SMILES,"mRNA expression of ACE [4, 17]",other results
0.1 or less,suitable,0.1 or less,suitable,0.1 or less,suitable,0.1 or less,suitable,0.1 or less,suitable,"CCCc1nc2c(C)cc(-c3nc4ccccc4n3C)cc2n1Cc1ccc(-c2ccccc2C(=O)O)cc1 [Com. Ex. 16, Telmisartan]",–,"content [1, 6]: 100.1%; content [1, 7]: 100%; content [1, 8]: 100%; content [1, 9]: 100%; content [1, 10]: 100.1%"
0.1 or more,suitable,0.1 or more,suitable,0.1 or more,suitable,0.1 or more,suitable,0.1 or less,suitable,"CCCCC(=O)N(Cc1ccc(-c2ccccc2-c2nnn[nH]2)cc1)[C@H](C(=O)O)C(C)C [Com. Ex. 20, Valsartan]",–,"content [1, 6]: 99.4%; content [1, 7]: 99.2%; content [1, 8]: 99%; content [1, 9]: 98.7%; content [1, 10]: 99.7%"
1.0 or less,unsuitable,5.0 or more,unsuitable,5.0 or more,unsuitable,5.0 or more,unsuitable,0.1 or less,suitable,"Cc1ccc([C@@H]2O[C@H](CO)[C@@H](O)[C@H](O)[C@H]2O)cc1Cc1ccc(-c2ccc(F)cc2)s1 [Com. Ex. 21, Canagliflozin]",–,"content [1, 12]: 95.2%; content [1, 13]: 89.2%; content [1, 14]: 85.2%; content [1, 15]: 80.1%; content [1, 16]: 99.5%"
–,–,–,–,–,–,–,–,–,–,"CCCc1nc2c(C)cc(-c3nc4ccccc4n3C)cc2n1Cc1ccc(-c2ccccc2C(=O)O)cc1 [Telmisartan, 4'-[(1,4'-dimethyl-2'-propyl[2,6'-bi-1H-benzimidazol]-1'-yl)methyl][1,1'-biphenyl]-2-carboxylic acid]",did not decrease to a normal level,"cell survival rate (MDCK cells): no effect on cell survival rate; body weight measurement [2]: a tendency for inhibiting weight gain; ACE expression inhibition effect ([3]; 25 µM treatment group): the best; ACE expression inhibition effect ([3]; all treatment concentrations (10, 25, 50 µM)): superior to that of olmesartan; Cmax of Telmisartan (T/R ratio) (in the presence of Dapagliflozin, 80 mg / 10 mg, 90% confidence interval 0.99 to 1.43): approximately 1.19 times; mRNA expression ([4]; 25 µM treatment group, FIG. 4): mostly inhibited; mRNA expression inhibition effect ([4]; all treatment concentrations, FIG. 4): superior to that of olmesartan; difference in AUCall between groups in the single administration group and the combined administration group [5]: 1.0 times; cell survival rate (A549 cells): no effect on cell survival rate"
1.0 or less,suitable,1.0 or more,suitable,5.0 or more,unsuitable,5.0 or more,unsuitable,0.1 or less,suitable,"OC[C@H]1O[C@@H](c2ccc(Cl)c(Cc3ccc(O[C@H]4CCOC4)cc3)c2)[C@H](O)[C@@H](O)[C@@H]1O [Com. Ex. 17, Empagliflozin]",–,"content [1, 12]: 97.3%; content [1, 13]: 95.1%; content [1, 14]: 85.4%; content [1, 15]: 80.2%; content [1, 16]: 99.9%"
–,–,–,–,–,–,–,–,–,–,"CCOc1ccc(Cc2cc([C@@H]3O[C@H](CO)[C@@H](O)[C@H](O)[C@H]3O)ccc2Cl)cc1 [Dapagliflozin, (1S)-1,5-anhydro-1-C-{4-chloro-3-[(4-ethoxyphenyl)methyl]phenyl}-D-glucitol]",did not decrease to a normal level,"GLU ([2]; blood test): decreased; Cmax of Dapagliflozin (T/R ratio) (in the presence of Telmisartan, 90% confidence interval 0.93 to 1.12): approximately 1.02 times; AUC of Dapagliflozin (T/R ratio) (in the presence of Telmisartan, 90% confidence interval 0.97 to 1.03): approximately 1.00 times; difference in AUCall between groups in the single administration group and the combined administration group [5]: 1.0 times"
–,–,–,–,–,–,–,–,–,–,"CCCc1nc2c(C)cc(-c3nc4ccccc4n3C)cc2n1Cc1ccc(-c2ccccc2C(=O)O)cc1 [Comparative Example 14, Telmisartan]",–,"mRNA expression of ACE [4, 18]: decrease below the normal level"
–,–,–,–,–,–,–,–,–,–,"OC[C@H]1O[C@@H](c2ccc(Cl)c(Cc3ccc(O[C@H]4CCOC4)cc3)c2)[C@H](O)[C@@H](O)[C@@H]1O [Comparative Example 8, Empagliflozin]",–,"mRNA expression of ACE [4, 18]: decrease below the normal level"
–,–,–,–,–,–,–,–,–,–,"OC[C@H]1O[C@@H](c2ccc(Cl)c(Cc3ccc(O[C@H]4CCOC4)cc3)c2)[C@H](O)[C@@H](O)[C@@H]1O [Empagliflozin, (1S)-1,5-anhydro-1-C-[4-chloro-3-[[4-[[(3S)-tetrahydro-3-furanyl]oxy]phenyl]methyl]phenyl]-D-glucitol]",did not decrease to a normal level,–
–,–,–,–,–,–,–,–,–,–,CCCc1nc(C(C)(C)O)c(C(=O)O)n1Cc1ccc(-c2ccccc2-c2nnn[nH]2)cc1 [olmesartan],–,cell survival rate (MDCK cells): no effect on cell survival rate; cell survival rate (A549 cells): no effect on cell survival rate
